Values quoted from earlier work in PubChem BioAssay AID1259409 (Chemical Carcinogenesis Research Information System (CCRIS), 2018).

Test system: rodent chemically induced tumor inhibition, incidence and multiplicity
Assay: CCRIS tumor inhibitor studies

SMILES: Oc1cccc(O)c1
- tumour outcome (control, treated, inhibition, significance) (Carcinogen: 3,2'-DIMETHYL-4-AMINOBIPHENYL, 13394-86-0, Dose [Inhibitor]: 0, 0.8% IN BASAL DIET BEGINNING POST CARCINOGEN TREATMENT AND CONTINUING FOR 40 WK (STUDY DURATION: 60 WK), Route [Inhibitor]: ORAL, Species: RAT, Strain/Sex: F344/MALE, Target Tissue: Type of Lesion: LARGE INTESTINE: ADENOMA AND ADENOCARCINOMA, Dose [Carcinogen]: 50 MG/KG 1/2 WK FOR 20 WK TO RATS MAINTAINED ON ETHINYL ESTRADIOL CONTAINING DIET (0.75 PPM) FOR 1 WK CYCLED WITH ETHINY, Promoter: ETHINYL ESTRADIOL, 57-63-6): 3/10 (30%), 6/10 (60%), -100%, not significant
- tumour outcome (control, treated, inhibition, significance) (Carcinogen: 3,2'-DIMETHYL-4-AMINOBIPHENYL, 13394-86-0, Dose [Inhibitor]: 0, 0.8% IN BASAL DIET BEGINNING POST CARCINOGEN TREATMENT AND CONTINUING FOR 40 WK (STUDY DURATION: 60 WK), Route [Inhibitor]: ORAL, Species: RAT, Strain/Sex: F344/MALE, Target Tissue: Type of Lesion: PANCREAS: ACINAR CELL NODULE, Dose [Carcinogen]: 50 MG/KG 1/2 WK FOR 20 WK TO RATS MAINTAINED ON ETHINYL ESTRADIOL CONTAINING DIET (0.75 PPM) FOR 1 WK CYCLED WITH ETHINY, Promoter: ETHINYL ESTRADIOL, 57-63-6): 4/10 (40%), 3/10 (30%), 25%, not significant
- tumour outcome (control, treated, inhibition, significance) (Carcinogen: 3,2'-DIMETHYL-4-AMINOBIPHENYL, 13394-86-0, Dose [Inhibitor]: 0, 0.8% IN BASAL DIET BEGINNING POST CARCINOGEN TREATMENT AND CONTINUING FOR 40 WK (STUDY DURATION: 60 WK), Route [Inhibitor]: ORAL, Species: RAT, Strain/Sex: F344/MALE, Target Tissue: Type of Lesion: PREPUTIAL GLAND: ADENOMA AND CARCINOMA, Dose [Carcinogen]: 50 MG/KG 1/2 WK FOR 20 WK TO RATS MAINTAINED ON ETHINYL ESTRADIOL CONTAINING DIET (0.75 PPM) FOR 1 WK CYCLED WITH ETHINY, Promoter: ETHINYL ESTRADIOL, 57-63-6): 5/10 (50%), 3/10 (30%), 40%, not significant
- tumour outcome (control, treated, inhibition, significance) (Carcinogen: 3,2'-DIMETHYL-4-AMINOBIPHENYL, 13394-86-0, Dose [Inhibitor]: 0, 0.8% IN BASAL DIET BEGINNING POST CARCINOGEN TREATMENT AND CONTINUING FOR 40 WK (STUDY DURATION: 60 WK), Route [Inhibitor]: ORAL, Species: RAT, Strain/Sex: F344/MALE, Target Tissue: Type of Lesion: PROSTATE: CARCINOMA, Dose [Carcinogen]: 50 MG/KG 1/2 WK FOR 20 WK TO RATS MAINTAINED ON ETHINYL ESTRADIOL CONTAINING DIET (0.75 PPM) FOR 1 WK CYCLED WITH ETHINY, Promoter: ETHINYL ESTRADIOL, 57-63-6): 5/10 (50%), 3/10 (30%), 40%, not significant
- tumour outcome (control, treated, inhibition, significance) (Carcinogen: 3,2'-DIMETHYL-4-AMINOBIPHENYL, 13394-86-0, Dose [Inhibitor]: 0, 0.8% IN BASAL DIET BEGINNING POST CARCINOGEN TREATMENT AND CONTINUING FOR 40 WK (STUDY DURATION: 60 WK), Route [Inhibitor]: ORAL, Species: RAT, Strain/Sex: F344/MALE, Target Tissue: Type of Lesion: SMALL INTESTINE: ADENOMA AND ADENOCARCINOMA, Dose [Carcinogen]: 50 MG/KG 1/2 WK FOR 20 WK TO RATS MAINTAINED ON ETHINYL ESTRADIOL CONTAINING DIET (0.75 PPM) FOR 1 WK CYCLED WITH ETHINY, Promoter: ETHINYL ESTRADIOL, 57-63-6): 2/10 (20%), 2/10 (20%), 0%, not significant
- tumour outcome (control, treated, inhibition, significance) (Carcinogen: 3,2'-DIMETHYL-4-AMINOBIPHENYL, 13394-86-0, Dose [Inhibitor]: 0, 0.8% IN BASAL DIET BEGINNING POST CARCINOGEN TREATMENT AND CONTINUING FOR 40 WK (STUDY DURATION: 60 WK), Route [Inhibitor]: ORAL, Species: RAT, Strain/Sex: F344/MALE, Target Tissue: Type of Lesion: SUBCUTIS: TUMOR, Dose [Carcinogen]: 50 MG/KG 1/2 WK FOR 20 WK TO RATS MAINTAINED ON ETHINYL ESTRADIOL CONTAINING DIET (0.75 PPM) FOR 1 WK CYCLED WITH ETHINY, Promoter: ETHINYL ESTRADIOL, 57-63-6): 1/10 (10%), 1/10 (10%), 0%, not significant
- tumour outcome (control, treated, inhibition, significance) (Carcinogen: 3,2'-DIMETHYL-4-AMINOBIPHENYL, 13394-86-0, Dose [Inhibitor]: 0, 0.8% IN BASAL DIET BEGINNING POST CARCINOGEN TREATMENT AND CONTINUING FOR 40 WK (STUDY DURATION: 60 WK), Route [Inhibitor]: ORAL, Species: RAT, Strain/Sex: F344/MALE, Target Tissue: Type of Lesion: ZYMBAL GLAND: ADENOMA OR CARCINOMA, Dose [Carcinogen]: 50 MG/KG 1/2 WK FOR 20 WK TO RATS MAINTAINED ON ETHINYL ESTRADIOL CONTAINING DIET (0.75 PPM) FOR 1 WK CYCLED WITH ETHINY, Promoter: ETHINYL ESTRADIOL, 57-63-6): 2/10 (20%), 2/10 (20%), 0%, not significant
- tumour outcome (control, treated, inhibition, significance) (Carcinogen: BENZO[A]PYRENE, 50-32-8, Dose [Inhibitor]: 10 MG IN 0.1 ML ACETONE 3/WK ADMINISTERED SIMULTANEOUSLY WITH CARCINOGEN FOR DU RATION OF STUDY (STUDY DURATION: 368 D), Route [Inhibitor]: DERMAL, Species: MOUSE, Strain/Sex: ICR/FEMALE, Target Tissue: Type of Lesion: SKIN: PAPILLOMA, Dose [Carcinogen]: 5 UG IN 0.1 ML ACETONE THAT ALSO CONTAINED AGENT 3/WK FOR DURATION OF STUDY, Promoter: NONE USED): 14/50 (28%), 5/50 (10%), 64%, not calculated
- tumour outcome (control, treated, inhibition, significance) (Carcinogen: BENZO[A]PYRENE, 50-32-8, Dose [Inhibitor]: 10 MG IN 0.1 ML ACETONE 3/WK ADMINISTERED SIMULTANEOUSLY WITH CARCINOGEN FOR DU RATION OF STUDY (STUDY DURATION: 368 D), Route [Inhibitor]: DERMAL, Species: MOUSE, Strain/Sex: ICR/FEMALE, Target Tissue: Type of Lesion: SKIN: SQUAMOUS CARCINOMA, Dose [Carcinogen]: 5 UG IN 0.1 ML ACETONE THAT ALSO CONTAINED AGENT 3/WK FOR DURATION OF STUDY, Promoter: NONE USED): 10/50 (20%), 2/50 (4%), 80%, not calculated
- tumour outcome (control, treated, inhibition, significance) (Carcinogen: N-BIS(2-HYDROXYPROPYL)NITROSAMINE, 53609-64-6, Dose [Inhibitor]: 0, 0.8% IN DIET FOR 30 WK BEGINNING POST CARCINOGEN (STUDY DURATION: 32 WK), Route [Inhibitor]: ORAL, Species: RAT, Strain/Sex: F344/MALE, Target Tissue: Type of Lesion: LUNG: CARCINOMA, Dose [Carcinogen]: 0.1% IN DRINKING WATER FOR 2 WK, Promoter: NONE USED): 45%, 40%, 11%, not calculated
- tumour outcome (control, treated, inhibition, significance) (Carcinogen: N-BIS(2-HYDROXYPROPYL)NITROSAMINE, 53609-64-6, Dose [Inhibitor]: 0, 0.8% IN DIET FOR 30 WK BEGINNING POST CARCINOGEN TREATMENT (STUDY DURATION: 32 WK), Route [Inhibitor]: ORAL, Species: RAT, Strain/Sex: F344/MALE, Target Tissue: Type of Lesion: BLADDER: ADENOMA, Dose [Carcinogen]: 0.1% IN DRINKING WATER FOR 2 WK, Promoter: NONE USED): 5%, 10%, -100%, not calculated
- tumour outcome (control, treated, inhibition, significance) (Carcinogen: N-BIS(2-HYDROXYPROPYL)NITROSAMINE, 53609-64-6, Dose [Inhibitor]: 0, 0.8% IN DIET FOR 30 WK BEGINNING POST CARCINOGEN TREATMENT (STUDY DURATION: 32 WK), Route [Inhibitor]: ORAL, Species: RAT, Strain/Sex: F344/MALE, Target Tissue: Type of Lesion: KIDNEY: TUMOR, Dose [Carcinogen]: 0.1% IN DRINKING WATER FOR 2 WK, Promoter: NONE USED): 10%, 35%, -250%, not calculated
